Source: patent publication US20120263791A1, “FOMULATION COMPRISING 1 H-QUINAZOLINE-2, 4-DIONE AMPA RECEPTOR ANTAGONISTS, IN THE FORM OF IMMEDIATE RELEASE TABLETS AND PREPARATION THEREOF” (NOVARTIS AG, priority 2009, published 2012)

Assay: PK parameters after a single dose of three 50 mg tablets to a sample population (12)
Type: in vivo
Conditions: human, po, 150 mg, plasma, three 50 mg tablets of Example 4 in a single dose
Experimental: A 50 mg tablet as specified in Example 4 was prepared using the procedure described in Example 4. Three tablets were administered in a single dose to a sample population (12) and the PK parameters measured. These parameters are provided below.
Primary PK variables were […] and analyzed using a mixed effects linear model. Sequence, Period and Treatment factors were included in the model as fixed effects and subject as a random effect. 90% confidence intervals for PK variables (pharmacokinetic analysis population).
Drug Substance: Compound (iii); Matrix: Plasma; Analyte: Compound (iii).

`CC(C)c1cc2[nH]c(=O)n(NS(C)(=O)=O)c(=O)c2cc1-c1ccnn1C` [Compound (iii)] gave an AUC(0-inf) (read-out: AUCinf, adjusted geometric mean) of 16800 ng·h/mL, an AUC(0-t) (read-out: AUClast, adjusted geometric mean) of 16800 ng·h/mL and a Cmax (read-out: Cmax, adjusted geometric mean) of 2910 ng/mL.
